In US20100041756A1, “METHOD OF MODULATING B CELL FUNCTIONING” (priority 2004, published 2010):

How the values were obtained:
[1] = test system: DBA/1 mice with established collagen-induced arthritis; assay: Effect of tranilast on established collagen-induced arthritis (Example 1); format: in vivo, mouse; settings: for Histological score (mean ± SE): 10 days, score 0-3
Experimental: FIG. 1 is a graphical representation of the amelioration of established collagen-induced arthritis (CIA) by intraperitoneal administration of tranilast. DBA/1 mice were immunised with bovine type II collagen in complete Freund's adjuvant in order to induce arthritis. After onset of clinical disease mice were randomly assigned to different treatment groups and given tranilast at 100, 200 or 400 mg/kg/day or vehicle control. Clinical scores were assessed throughout the treatment period using a clinical scoring system described in the Examples. The maximum possible score per mouse is 8. There were 7-10 mice per treatment group.
FIG. 2 is a graphical representation of the amelioration of established CIA by administration of tranilast. DBA/1 mice were immunised with bovine type II collagen in complete Freund's adjuvant in order to induce arthritis. After onset of clinical disease mice were randomly assigned to different treatment groups and given tranilast at 100, 200 or 400 mg/kg/day (i.p.) or vehicle control. Paw-swelling was measured throughout the treatment. There were 7-10 mice per treatment group.
Bovine CII was purified and prepared as previously described (9) and solubilised by stirring overnight at 4° C. in 0.1M acetic acid.
Male DBA/1 mice (7-8 animals/group) were immunised i.d. at 8-12 weeks of age with bovine CII (200 μg/mouse), emulsified in CFA (Difco Laboratories, West Moseley, UK). Beginning at 14 days after immunisation, mice were inspected daily for signs of arthritis and treatment was initiated on day 1 of arthritis. This research was approved by the local Ethical Review Process Committee and by the Home Office of the United Kingdom.
Tranilast was dissolved in 1% NaHCO3 by heating to 70° C. and injected i.p. at 100, 200 or 400 mg/kg/day.
The development of arthritis was assessed daily for the duration of the experiment. The clinical severity of arthritis was graded as follows, 0=normal, 1=slight swelling and/or erythema, 2=pronounced oedematous swelling. Each limb was graded, allowing a maximal clinical score of 8 for each animal. Swelling of hind paws was recorded with a pair of calipers. All clinical evaluations were performed in a blinded manner.
At the end of the treatment period the mice were killed, bled and their joints were processed for histology. The first limb to show clinical evidence of arthritis was removed, fixed, decalcified, and embedded before sectioning and staining with haemotoxylin and eosin. Saggital sections were examined by microscopy in a blinded fashion and joints were graded as follows: 0=normal; 1=mild synovitis without cartilage loss or bone erosion; 2=moderate or severe synovitis with erosions present but normal joint architecture intact; 3=severe synovitis with extensive erosions and normal joint architecture disrupted.
DBA/1 mice were immunised with bovine type II collagen in complete Freund's adjuvant in order to induce arthritis. After onset of clinical disease mice were randomly assigned to different treatment groups and given tranilast at 100, 200 or 400 mg/kg/day (i.p.) or vehicle control. Treatment was continued for 10 days after which time the mice were killed and paws were processed for histology. Joints were graded histologically in a blinded fashion.

[2] = test system: inguinal lymph node cells; assay: Cytokine production by draining (inguinal) lymph node cells of treated CIA mice (ELISA); format: in vivo, mouse; settings: for IL-5 production by lymph node cells: treated mice (FIG. 8)
Experimental: FIG. 8 is a graphical representation depicting that mice with established CIA were treated for 10 days with 3,4-DAA or vehicle control. Mice were then killed and draining (inguinal) lymph node cells were cultured for 72 h in the absence or presence of type II collagen.
Inguinal lymph nodes were excised from Tranilast-treated and control mice. Alternatively, inguinal lymph nodes were removed from untreated arthritic mice (day 1-5 of arthritis) and Tranilast was added in vitro. In both cases, LNC were cultured in RPMI 1640 containing FCS (10% v/v), 2-mercaptoethanol (20 μM), L-glutamine (1% w/v), penicillin (100 U/ml) and streptomycin (100 μg/ml) in the presence or absence of type II collagen (50 μg/ml). Secreted cytokines (IFN-γ, IL-5, TNFα and IL-10) were measured after 72 h. by ELISA. In brief, 96 well ELISA plates were coated with the respective capture antibody, blocked with bovine serum albumin (2% w/v), and then incubated with LNC culture supernatants (neat) overnight at 4° C. After washing, bound cytokines were detected using biotinylated detect antibodies. A standard curve was generated using known concentrations of the appropriate recombinant cytokine and the concentrations of cytokines present in culture supernatants were estimated by reference to the standard curve.

[3] = test system: B cells activated with LPS; assay: B cell proliferation, BrdU uptake detected by FACS analysis (Example 2); format: cell-based; settings: Mus musculus, LPS-induced, 100 μg/ml tranilast (FIG. 3), read-out: maximum inhibition of proliferation
Experimental: FIG. 3 is a graphical representation of the inhibition of B cell proliferation by tranilast. B-cells were activated in vitro with LPS, and 1-100 μg/ml tranilast. Proliferation was assessed using BrdU uptake, detected by FACs analysis. LPS induced proliferation in 72% of cells.
B cells were prepared for mouse spleen using rat anti-mouse IgM microbeads and the MACS system.
3 spleens were removed from male DBA/1 mice aged 8-12 weeks. A single cell suspension was prepared by cell-sieve.
Cells were cultured at 1×10^6 cells/ml in 2 ml complete RPMI with glutamine (10% FCS, 1% Pen/Strep, 50 μM 2-Mercaptoethanol, 1 mM Na-Pyruvate) for 48 h in the presence of LPS (20 μg/ml), and 100-25 μg/ml tranilast, or vehicle (DMSO).
20 μM BrdU (Sigma) was added to each well, and incubated overnight.
FACS analysis of staining was performed on the BD LSR Flow Cytometer.

## COc1ccc(/C=C/C(=O)Nc2ccccc2C(=O)O)cc1OC [Tranilast, 2-[[3-(3,4-dimethoxyphenyl)-1-oxo-2-propenyl]amino]benzoic acid]
[1]; 100 mg/kg/day i.p.
  Histological score (mean ± SE): 1.64 ± 0.35
[1]; 200 mg/kg/day i.p.
  Histological score (mean ± SE): 1.19 ± 0.35
[1]; 400 mg/kg/day i.p.
  Histological score (mean ± SE): 0.57 ± 0.20
[1]; 100, 200 or 400 mg/kg/day i.p., 10 days (FIG. 1)
  clinical scores: reduced clinical scores in a dose-dependent fashion
[1]; 100, 200 or 400 mg/kg/day i.p., 10 days (FIG. 2)
  paw-swelling: reduced paw-swelling in a dose-dependent fashion
[1]; compared to control mice, end of 10 day treatment
  synovitis, cartilage loss and bone erosion (histology): reduced level of synovitis, cartilage loss and bone erosion
[2]; cultured 72 h, mice given 400 mg/kg for 10 days (FIG. 8)
  IFN-γ production by lymph node cells: significantly reduced
[2]; cultured 72 h
  IL-5 production by lymph node cells: unaffected
[2]; cultured 72 h, listed as 3,4-DAA
  IL-5 production by lymph node cells: significantly reduced
[2]; cultured 72 h in the presence of type II collagen (FIG. 8)
  cytokine production on restimulation with collagen: differences between the groups were not significant
[3]
  inhibition at 100 µg/mL: 75%
